{"source": "PubChem BioAssay (NCI)", "system": "P388/ADR leukemia", "experiment": "NCI tumour cell line growth inhibition, 48 h", "note": "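Briefly, cells in 96-well plates were exposed to five compound concentrations for 48 h, and endpoints were estimated by linear interpolation. At the TGI there is no net growth.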", "data": [{"smiles": "O=c1n(CC2CO2)c(=O)n(CC2CO2)c(=O)n1CC1CO1", "note": "(stereo unspecified)", "values": [{"measurement": "TGI", "result": 275, "unit": "µM"}]}]}
